Patent publication US10537610B1, “Peptide for inhibition of cancer” (priority 2018, dated 2020)
Non-standard residues stand in square brackets, D forms with d. Residues, ends and D or L forms follow the SMILES beside them.

Assays:
soluble JAM-A = assay: ELISA of JAM-A antigen in plasma, murine 4T1 breast cancer model; format: in vivo, mouse; settings: 4T1 tumor-bearing BALB/c mice and control littermates; Tβ4 15 μg/kg or TGF-β1 5 μg/kg i.p., 21 days
Description: All in vivo experiments were carried on female BALB/c mice aged 8 to 12 weeks purchased from Animal House of Institute of Biology, University of Bialystok (Bialystok, Poland). The mice were housed under standard conditions at the Animal House of the Medical University of Lodz (Lodz, Poland). All animal procedures and protocols were conducted in accordance with the Guide for the Care and Use of Laboratory Animals of the National Animal Care Committee and were approved by Local Ethical Committee for Animal Research in Lodz (license number 9/LB51/2017 from Jun. 2, 2017). All efforts were made to minimize animal suffering.
Murine 4T1 cells were purchased from the American Type Culture Collection (ATCC, Manassas, Va., USA). The cells were maintained in RPMI-1640 (ATCC) with 10/o fetal bovine serum (FBS) and cultured in tissue culture flasks to 80% confluence. […]
The unbound biotinylated antibody was washed away and HRP-conjugated streptavidin was added to the wells. […] Regarding the both protocols, the enzyme-substrate (HRP-TMB) reaction was terminated by the addition of a sulfuric acid solution and the color change was measured spectrophotometrically at a wavelenght of 450 nm using the Wallac 1420 VICTOR2 Multilabel Counter (PerkinElmer). The concentration of target antigen in the samples was determined by comparing the optical density of the samples to the standard curve.

[1] = system: breast cancer cells (MCF-7, MDA-MB-231) on HMEC-1 cells; assay: Adhesion of breast cancer cells to endothelial monolayer under static conditions; format: cell-based, human; settings: P4D 500 μM
Description: The peptides were synthesized and purified by LifeTein, LLC (Somerset, N.J., USA) with the purity of not less than 95% using PeptideSyn™ technology that incorporates solid phase fluorenylmethyloxycarbonyl (Fmoc) chemistry. The cells were treated with the peptide P4D for 0, 1, 5, or 24 hours at a concentration of 500 μM. The cells treated with the Scrambled peptide P4D (Scr; 500 μM; 0, 1, 5, or 24 hours incubation time) were used as a negative control. In order to provide the positive control of the junctions tightening for impedance-based measurements of endothelial permeability, the cells were incubated with the potent activator of TJ assembly, forskolin (FSK; BioShop, Burlington, ON, Canada), for 24 hours at a concentration of 10 μM.
Adhesion of human breast cancer (MCF-7, MDA-MB-231) or non-tumorigenic (MCF-10A) human breast cells to HMEC-1 cells was performed in 24-well plates. HMEC-1 cells were seeded to the bottom of the fibronectin-coated wells 2 days before the assay to form the monolayer and subjected to a suitable treatment. Breast cancer or non-tumorigenic cells were starved overnight and on the day of the assay were labeled with CellTracker Green CMFDA Dye for 30 minutes. […] The adherent cells were lysed by 2% SDS and the fluorescence was measured using the Wallac 1420 VICTOR2 Multilabel Counter (PerkinElmer) at 492 nm of excitation and 517 nm of emission wavelengths.

| Compound | JAM-A level in plasma (soluble JAM-A) | adhesion of MECs to inflamed endothelial monolayer ([1]; HMEC-1 preincubated with TNF-α 10 ng/ml and IFN-γ 20 ng/ml for 24 hours) | extent of adhesion inhibition, MDA-MB-231 cells compared with other MECs ([1]; cytokine-inflamed HMEC-1) |
| --- | --- | --- | --- |
| Thymosin β4 (SDKPDMAEIEKFDKSKLKKTETQEKNPLPSKETIEQEKQAGES; not fully specified; Thymosin beta-4; UniProt P62328 2-44, looked up) [Tβ4] | decrease JAM-A level in plasma |  |  |
| CC(C)[C@H](NC(=O)[C@H](CO)NC(=O)[C@H](N)CCCCN)C(=O)N[C@H](C(=O)N[C@H](CCCNC(=N)N)C(=O)N[C@@H](CCC(=O)O)C(=O)N[C@@H](CC(=O)O)C(=O)N[C@H](C(=O)NCC(=O)N[C@H](C(=O)N[C@@H](Cc1ccc(O)cc1)C(=O)N[C@H](C(=O)N[C@@H](CS)C(N)=O)[C@@H](C)O)[C@@H](C)O)[C@@H](C)O)[C@@H](C)O [Peptide P4D, NH2-(dK)-SVT-(dR)-EDTGTYTC-CONH2] (H-[dK]SVT[dR]EDTGTYTC-NH2) |  | restrained the adhesion of MECs to the inflamed endothelial monolayer | most pronounced |
